Data on two compounds can be found in US20210244814A1, “COMBINATION OF METFORMIN AND CYCLOPHOSPHAMIDE AS AN ADJUVANT IN CANCER IMMUNOTHERAPY” (UNIVERSITÉ CATHOLIQUE DE LOUVAIN, priority 2018, published 2021).

Assay [1] deals with TCRP1A CD8^+ T cells, Treg cells and PMN-MDSCs infiltrating TiRP tumors. Description: FACS analysis of tumor-infiltrating cells in TiRP-tumor bearing mice after adoptive cell transfer (ACT). The format is in vivo. The conditions noted are these: for tumor infiltration of the transferred TCRP1A CD8+ T cells / survival of the transferred TCRP1A CD8+ T cells (apoptosis, annexin V): 14 days after ACT, CTX 100 mg/kg one day before ACT and/or metformin 0.5 mg/ml drinking water; for tumor infiltration of the transferred TCRP1A CD8+ T cells: FIG. 3A; for survival of the transferred TCRP1A CD8+ T cells (apoptosis, annexin V): FIG. 3B. An excerpt: (§1) TiRP mice have been created by crossing Ink4a/Arf^flox/flox mice with mice carrying a transgenic construct controlled by the tyrosinase promoter and driving the expression of H-Ras^12V and Trap 1 a which encodes a MAGE-type tumor antigen P1A; the promoter is separated from the coding region by a stop cassette made of a floxed self-deleting CreER (Huijbers et al., 2006, Cancer Res 66, 3278-3286). Those mice were backcrossed to a B10.D2 background and bred to homozygosity. TCRP1A mice heterozygous for the H-2Ld/P1A35-43-specific TCR transgene were kept on the B10.D2;Rag1^−/− background (Shanker et al., 2004, J Immunol 172, 5069-5077).
(§2) A fresh solution of 4OH-Tamoxifen was prepared by dissolving 4OH-Tamoxifen (Imaginechem) in 100% ethanol and mineral oil (ratio 1:9) followed by 30-min sonication, and injected subcutaneously (2 mg/200 μl per mouse) in the neck area of gender-matched 7 weeks old TiRP mice. Tumor appearance was monitored daily and tumors were measured three times/week. Tumor volume (in mm^3) was calculated by the following formula: Volume=width^2×length×π/6. Tumor-bearing TiRP mice were randomized based on the tumor size when average volume was 500 mm^3 and treated as indicated. For cyclophosphamide (CTX, Sigma C7397) treatment, mice received an intra-peritoneal injection of CTX at 100 mg/kg or vehicle (PBS) 24 h before adoptive cell transfer. For metformin treatment, metformin (Enzo, ALX-270-432) was dissolved in mice drinking water at a concentration of 0.5 mg/ml and administered to the mice from the moment of adoptive cell transfer until the end of the experiment; the solution was replaced three times/week.
(§3) For the adoptive cell transfer (ACT), P1A-specific (TCRP1A) CD8^+ T cells were isolated from spleens and lymph nodes of TCRP1A mice using anti-mouse CD8α (Ly-2) MicroBeads (Miltenyi Biotec), and stimulated in vitro by co-culture with irradiated (10.000 rads) L1210.P1A.B7-1 cells (Gajewski et al., 1995, J Immunol 154, 5637-5648) at 1:2 ratio (0.5×10^5 CD8^+ T cells and 10^5 L1210.P1A.B7-1 cells per well in 48-well plates) in IMDM (GIBCO) containing 10% fetal bovine serum supplemented with L-arginine (0.55 mM, Merck), L-asparagine (0.24 mM, Merck), glutamine (1.5 mM, Merck), betamercaptoethanol (50 μM, Sigma), 50 Uml^−1 penicillin and […] streptomycin (Life Technologies). Four days later, TCRP1A CD8^+ T cells were purified on a Lymphoprep gradient (StemCell) and 10^7 living cells were injected intravenously in 200 μl PBS in TiRP-tumor bearing mice.
For hypoxia detection, mice received an intraperitoneal injection of pimonidazole hydrochloride at 60 mg/kg (Hypoxyprobe) 45 minutes before tumor harvesting. Tumor single cell suspension was prepared using gentleMACS Dissociator and incubating the tissue in RMPI containing 0.04% collagenase I, 0.04% collagenase II and 0.05% dispase (all from GIBCO) for 1 hour at 37° C. After passing the cell suspension through a 70 μm- and 40 μm-cell strainer, red blood cell lysis was performed (eBioscience, 00-4300-54). Tumor cell preparation was stained with the Viability dye eFluor780 (eBioscience, 1:1000) to identify dead cells during the FACS analysis, and then incubated with Mouse BD Fc Block (BD, clone 2.4G2, 1:100) in PBS supplemented with 2% FBS and 2 mM EDTA. TCRP1A CD8^+ T cells were labeled by using H-2L^d PIA tetramer-PE (1 μM, produced in-house at the Ludwig Institute for Cancer Research) and anti-CD8α BV-421 (BioLegend, 53-6.7, 1:200); for apoptosis quantification, Annexin V APC (BioLegend, 1:20) was used. Hypoxic cells were identified with the anti-pimonidazole antibody (Hypoxyprobe, HP-FITC-Mab 4.3.11.3, 1:100) after cell fixation and permeabilization according to manufacturer's instructions (eBioscience Transcription Factor Staining Buffer Set).
On the technique in general: Flow cytometry measures light scatter and fluorescence of single cells or particles in a stream.

The test system of assay [2] is TiRP mice (genetically engineered mouse melanoma model). Description: Tumor growth, tumor weight and survival of TiRP mice with or without ACT. It counts as in vivo. The note with it: for tumor response to the immunotherapy (tumor growth) / tumor growth and tumor weight 14 days after ACT / tumor growth in the presence of ACT: TiRP mice with ACT; for tumor response to the immunotherapy (tumor growth): up to 22 days after ACT, FIG. 6A; for tumor growth and tumor weight 14 days after ACT: CTX 100 mg/kg the day before ACT and/or metformin 0.5 mg/ml for 14 days, FIG. 5; for tumor growth in the presence of ACT / tumor growth in absence of ACT: FIG. 7; for tumor growth in absence of ACT: TiRP mice without ACT.
Source text: as §1, §2, §3
Data entry and all analyses were performed in a blinded fashion. All statistical analyses were performed using GraphPad Prism software. Statistical significance was calculated by two-tailed unpaired t-test on two experimental conditions or two-way analysis of variance (ANOVA) when repeated measures were compared, with p<0.05 considered statistically significant. Independent experiments were pooled and analyzed together whenever possible. All graphs show mean values±s.e.m.

For a further assay, the system named is B16F1 melanoma tumors. In words: B16F1 melanoma tumor growth with anti-PD-1 antibody or isotype control. The conditions noted are these: FIG. 8A; for growth of B16F1 melanoma tumors, single treatment: B6 mice. The format is in vivo, mice. The source says: (§4) Gender and age matched […] wild-type mice were used for the experiments with checkpoint inhibitors.
(§5) For the experiments with checkpoint inhibitors, gender matched, 7-9 weeks old […] wild-type mice were subcutaneously injected with 1 million of B16F1 or MC38 tumor cells. Mice were randomized based on the tumor size one week after the injection of tumor cells (B16F1 melanoma model) or when the average tumor size was between 90 and 120 mm^3 (MC38 colon carcinoma model). Tumor-bearing mice were then treated with CTX or PBS as described above. One day after, metformin was prepared as mentioned above and added to the mice drinking water until the end of the experiment. A dose of 100 μg/mouse of anti-PD-1 antibody (clone RMP1-14, Bio-X-Cell) or RatIgG2a isotype (clone 2A3, Bio-X-Cell) was injected intraperitoneally three times (B16F1 model) or four times (MC38 model) every three or four days starting from the day after CTX or PBS treatment.

A further assay concerns MC38 colon carcinoma. In words: MC38 colon carcinoma tumor rejection with anti-PD-1 antibody. The format is in vivo, mice. The conditions noted are these: MC38, 16 days after treatment, associated with the PD-1 inhibitor; FIG. 9B-D.
Source text: as §4, §5

SMILES strings stand for the structures.

As for `CN(C)C(=N)N=C(N)N` [metformin, 3-(diaminomethylidene)-1,1-dimethylguanidine], in assay [1] (4 days after ACT, metformin 0.5 mg/ml in drinking water from ACT, vs vehicle, FIG. 1A), the “infiltration of TCRP1A CD8^+ T cells in the tumor” value is recorded as “significantly increased”. Moreover, in assay [1] (4 days after ACT, metformin 0.5 mg/ml in drinking water, pimonidazole-positive, FIG. 1B), the “recruitment of TCRP1A CD8^+ T cells to the hypoxic regions of the tumor” value is reported as “allowed the recruitment”. In addition, in assay [1], the “tumor infiltration of the transferred TCRP1A CD8+ T cells” value is recorded as “increased tumor infiltration” and the “survival of the transferred TCRP1A CD8+ T cells (apoptosis, annexin V)” value is “increased survival”. Further, in assay [2], the “tumor response to the immunotherapy (tumor growth)” value was “did not seem to induce a significant tumor response”; the “tumor growth and tumor weight 14 days after ACT” value was “seemed to partially reduce tumor growth”; the “tumor growth in the presence of ACT” value is given as “did not inhibit tumor growth”; the “tumor growth in absence of ACT” value was “did not inhibit tumor growth”. Also, in the assay with B16F1 melanoma tumors, the “growth of B16F1 melanoma tumors, single treatment” value is on record as “not significantly affected”. Further, in the assay on B16F1 melanoma tumors (B16F1, associated with anti-PD-1 antibody 100 μg on day 0, 3, 7, C, D), the “tumor response to the PD-1 inhibitor” value is listed as “did not seem to induce a significant tumor response”. In the assay on MC38 colon carcinoma, the “mice that had rejected the tumor” value is on record as 20%.

In the case of `O=P1(N(CCCl)CCCl)NCCCO1` (stereo not drawn) [cyclophosphamide, 2-[bis(2-chloroethyl)amino]-1,3,2λ^5-oxazaphosphinan-2-one], the “tumor infiltration of Treg cells” value in assay [1] (4 days after ACT, single injection of CTX 100 mg/kg one day before ACT, FIG. 2A) is “reduced”. Besides, the “tumor infiltration of PMN-MDSCs” value in assay [1] (4 days after ACT, single injection of CTX 100 mg/kg one day before ACT, FIG. 2B) is on record as “reduced”. Moreover, in assay [1], the “tumor infiltration of the transferred TCRP1A CD8+ T cells” value was “increase” and the “survival of the transferred TCRP1A CD8+ T cells (apoptosis, annexin V)” value is recorded as “increase”. In assay [2], the “tumor response to the immunotherapy (tumor growth)” value was “did induce a significant tumor response”; the “tumor growth and tumor weight 14 days after ACT” value is given as “allowed an inhibition of the tumor growth”; the “tumor growth in the presence of ACT” value is reported as “tumor response was improved by the immunotherapy”; the “tumor growth in absence of ACT” value is given as “significantly reduced tumor growth”. In the assay with B16F1 melanoma tumors, the “growth of B16F1 melanoma tumors, single treatment” value was “induced per se a significant tumor response”. Moreover, the “mice that had rejected the tumor” value with MC38 colon carcinoma was 40%.
